The source made the active and inactive calls.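 How the source made its calls: active means fitted curve drops below -35% activity at a concentration within twice the top valid tested dose; inconclusive means no clear call, values can overlap the other calls; inactive means signal rising instead of falling, among other cases.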

A short description of one experiment: ATP-based viability loss in HepG2 cells – cell-based, CellTiter-Glo luminescence, cherry-pick, set 3, cytotoxicity control, dose response (AID 720589). As to conditions: HepG2 viability, ATP luminescence (CellTiter-Glo), 72 h; at 0.011 µM; stronger effect = lower value; 0% = untreated, negative = ATP loss.
With `CCN1CCN(/C=N/c2nc3c(s2)CCCC3)CC1`, the max activity is -25.3% (inactive). Take `N#Cc1cccc(-c2ccc(C3[C@@H]4CN(C(=O)Cc5ccncc5)C[C@H]3N4)cc2)c1` (stereo not given in full): the max activity is 21% (inactive). The same measure, in the same setting: as for `O=C(NCc1ccc(F)cc1)N1[C@H]2CC[C@@H]1C=C(c1ccc(F)cc1OCc1ccccc1)C2`, the figure is 21.9% (inactive); as for `CN(C)[C@@H]1CCC[C@@H]1OC(=O)C(c1ccccc1)c1ccccc1`, 32.6% (inactive). Turning to `CCN1C/C(=C/c2ccc(OC)c(O)c2)C(=O)/C(=C/c2ccc(OC)c(O)c2)C1`, the max activity was -39.6% (inactive). As for `CCCCNC(=O)C(c1ccc(OCC(=O)OC)c(C(=O)OC)c1)N(CCOC)C(=O)CCCCCN1C(=O)NC(c2ccc(-c3ccccc3)cc2)C(C(=O)OCc2ccccc2)=C1C` (stereo not given), the max activity was 32.5% (inactive). As to `CC(=NNc1ccc2ccccc2n1)c1ccccc1O`, the max activity was -35.4% (inactive). With `COC(=O)C[C@@H]1CC[C@@H]2[C@H](COc3ccc(NC(=O)c4cc(F)cc(F)c4)cc3C(=O)N2C)O1`, the max activity was -46.8% (inactive). Same read-out and setting: as for `C/C(=N\N(c1ccccc1)c1ccccc1)c1ccco1`, the figure is 17.6% (inactive).

The experiment is the same for the next values; noted with them: HepG2 viability, ATP luminescence (CellTiter-Glo), 72 h; at 0.035 µM; stronger effect = lower value; 0% = untreated, negative = ATP loss.
For `CCOC(=O)Cc1ccc(NC(=O)c2ccccc2Br)cc1`, the max activity was -16.1% (inactive). As to `COc1ccc(CCCNC(=O)C2Cc3c(-c4ccc5c(c4)OCO5)ccnc3O2)cc1` (stereo not given), the max activity was -34% (inactive). Regarding `CC1(C)Oc2cc3oc(-c4cc(O)cc(O)c4)cc3cc2CC1O` (stereo not given), the max activity was -28.3% (inactive). With `N#CC1C=Cc2c(ccc3ccccc23)N1C(=O)c1ccccc1` (stereo not given), the max activity is -32.3% (inactive). On the same count and under the same terms, under `CCCn1c(C)cc(C(=O)CN2C(=O)c3ccccc3S2(=O)=O)c1C` stands 5.3% (inactive); under `CC(=O)c1ccc(N=Nc2ccc(C)cc2)cc1`, -7.42% (inactive).

The same experiment, now with this note: HepG2 viability, ATP luminescence (CellTiter-Glo), 72 h; at 0.1 µM; stronger effect = lower value; 0% = untreated, negative = ATP loss.
Turning to `Cc1c(Cc2ccc3c(c2)OCO3)sc(NC(=O)C(C)(C)C)c1C#N`, the max activity is -26.7% (inactive). Consider `Cc1sc2nc(CN3CCC(C)CC3)nc(Cl)c2c1C`, for which the max activity was 16.4% (inactive). In the case of `O=C(NC(=O)c1ccccc1)Nc1ccccc1`, the max activity is -38.9% (inactive).

Turning to `CC(=O)c1ccc(NC(=O)c2noc3c2CCC3)cc1`, the max activity is -34.6% (inactive). In the case of `COc1cccc(Sc2ccccc2/C=N/NC(N)=O)c1`, the max activity was -25.8% (inactive). As to `COC(=O)Cc1ccc(NC(=O)c2ccccc2Cl)cc1`, the max activity was -26.9% (inactive).

For `COC(=O)C(CC#Cc1ccc2c(c1)[C@]1(C(=O)N2)[C@H](c2ccc(OCCO)cc2)N2[C@H](c3ccccc3)[C@H](c3ccccc3)OC(=O)[C@H]2[C@@H]1C(=O)N1CCN(c2ncccn2)CC1)C(=O)OC`, the max activity is -11.5% (inactive). In the case of `Cc1cc(Br)ccc1N=C1C(=O)Nc2ccccc21`, the max activity was -28.8% (inactive). With `C[C@@H]1CN([C@@H](C)CO)S(=O)(=O)c2ccc(C#CCN(C)C)cc2O[C@@H]1CN(C)Cc1ccncc1`, the max activity is -45% (inactive).

Still in this experiment, the particulars now being: HepG2 viability, ATP luminescence (CellTiter-Glo), 72 h; at 0.3 µM; stronger effect = lower value; 0% = untreated, negative = ATP loss.
Consider `COc1ccc2nc(-c3ccc(F)cc3)sc2c1`, for which the max activity was -47.1% (inactive). `COC(=O)C[C@@H]1CC[C@@H]2[C@@H](COc3ccc(NC(=O)Nc4ccccc4C)cc3C(=O)N2C)O1`: the max activity is -23.1% (inactive). As to `C=CCn1c(O)c(N=Nc2ccccc2)c2ccccc21`, the max activity was -21.6% (inactive). Still for that read-out and setting: under `COc1ccc(/C=C2\Oc3ccccc3C2=O)cc1` stands 21% (inactive). Take `Cc1ccc(/C=C2\SC(=S)N(CCC(=O)NNC(=O)c3ccccc3O)C2=O)cc1`: the max activity is -42.1% (inactive). Regarding `COCc1cc(C)nc2sc(C(=O)NCCO)c(-n3cccc3)c12`, the max activity is 7.49% (inactive).

As to `COC(=O)C[C@H]1CC[C@@H]2[C@H](COc3ccc(NC(=O)Nc4cccc(Cl)c4)cc3C(=O)N2C)O1`, the max activity is -38.3% (inactive).

In the case of `CCOc1ccc(NC(=O)C(=O)N/N=C\c2ccc(CNS(=O)(=O)c3ccccc3)o2)cc1`, the max activity was -36.6% (inactive). Regarding `CN(C)c1ccc(N=Nc2ccc(C(=O)O)cc2)cc1`, the max activity is -28.7% (inactive).

Staying with this experiment, now noted: HepG2 viability, ATP luminescence (CellTiter-Glo), 72 h; at 0.9 µM; stronger effect = lower value; 0% = untreated, negative = ATP loss.
As for `C[C@@H]1CN([C@H](C)CO)C(=O)c2cc(NC(=O)CCCCCC(=O)Nc3ccccc3N)ccc2O[C@@H]1CN(C)Cc1ccc(Cl)c(Cl)c1`, the max activity is 13.5% (inactive).

Still in this experiment, the particulars now being: HepG2 viability, ATP luminescence (CellTiter-Glo), 72 h; at 2.85 µM; stronger effect = lower value; 0% = untreated, negative = ATP loss.
Turning to `C[C@@H]1CN([C@H](C)CO)C(=O)c2cc(C#CCc3ccccc3)cnc2O[C@@H]1CN(C)Cc1cccc(F)c1`, the max activity was -31.8% (inactive).

Take `CCCCCCN(C(=O)CCCCCN1C(=O)NC(c2ccc(Cl)cc2)C(C(=O)OCc2ccccc2)=C1C)C(C(=O)NCCCC)c1ccc(OCC(=O)OC)c(C(=O)OC)c1` (stereo not given): the max activity was -30.9% (inactive). With `N#C[C@H]1[C@H](c2ccc(C#Cc3ccccc3F)cc2)[C@@H](CO)N1C(=O)C1CCOCC1`, the max activity was -21.8% (inactive).

Take `COc1cc(OC)cc(-c2cc3nc(C)c(CCC(=O)NCc4ccccc4)c(C)n3n2)c1`: the max activity is 23.9% (inactive).

As for `Cc1ccc2c(c1)C(=O)N1[C@H]3c4cc(Br)ccc4OC[C@@H]3[C@H](c3ccccc3)[C@]1(C)C(=O)N2`, the max activity was -19.3% (inactive).

As to `O=C(C[C@@H]1CC[C@@H]2[C@H](COC[C@@H](O)CN2S(=O)(=O)c2ccc(F)cc2)O1)NCc1ccc(Cl)c(Cl)c1`, the max activity is -11.2% (inactive). With `Cc1ccccc1N=Nc1c(O)n(C)c2ccccc12`, the max activity was -14.8% (inactive). Same read-out and setting: as for `COc1ccc(NC(=O)c2cc3ccccc3oc2=O)cc1`, the figure is -36.9% (inactive). Take `O=C(C[C@@H]1C[C@H]2c3cc(NC(=O)CC4CC4)ccc3O[C@H]2[C@H](CO)O1)NCc1ccccc1F`: the max activity is -31.6% (inactive). Consider `COc1ccc(-c2cnc3c(NC=O)cc(-c4ccccc4OC)cn23)cc1OC`, for which the max activity was -32.9% (inactive). With `CCOC(=O)Cc1csc(NC(=S)NC(=O)c2ccc(C)cc2)n1`, the max activity is 11.3% (inactive).

Staying with this experiment, now noted: HepG2 viability, ATP luminescence (CellTiter-Glo), 72 h; at 8 µM; stronger effect = lower value; 0% = untreated, negative = ATP loss.
`CCN1CCS/C1=C\C=C\C1=[N+](CC)CCS1`: the max activity is -37.7% (inactive). `O=C(Cc1nn[nH]n1)c1ccccc1O`: the max activity was -19.1% (inactive). `CCOc1ccc(/C=C2\CCc3ccccc3C2=O)cc1`: the max activity is -13.7% (inactive). As to `COc1ccccc1CNC(=O)C[C@@H]1CC[C@H]2[C@@H](COC[C@H](O)CN2C(=O)Nc2ccc(C(F)(F)F)cc2)O1`, the max activity was -30.7% (inactive). The same measure, in the same setting: as for `N#CC1=C(N)Oc2cc(N)ccc2C1c1cccc(F)c1` (stereo not given), the figure is -30% (inactive); as for `O=C(C[C@@H]1C[C@H]2c3cc(NS(=O)(=O)c4ccc(F)cc4)ccc3O[C@H]2[C@H](CO)O1)NCc1ccc(-c2ccccc2)cc1`, -26.1% (inactive). `Cc1ccc(-c2ccc3c(c2)O[C@@H](CN(C)C(=O)Nc2ccc(F)cc2)[C@H](C)CN([C@@H](C)CO)S3(=O)=O)cc1`: the max activity was -53.8% (inactive). With `Nc1ccc2c(c1)OC1(CCCC1)O2`, the max activity was -32.8% (inactive).

Staying with this experiment, now noted: HepG2 viability, ATP luminescence (CellTiter-Glo), 72 h; at 23.5 µM; stronger effect = lower value; 0% = untreated, negative = ATP loss.
Consider `C[C@H]1CN([C@@H](C)CO)C(=O)Cc2cc(NC(=O)CCCCCC(=O)Nc3ccccc3N)ccc2O[C@H]1CN(C)Cc1ccc(Cl)c(Cl)c1`, for which the max activity was -29.2% (inactive). On to `O=S(=O)(c1ccc(F)cc1)N1C[C@H]2[C@@H](c3ccccc31)[C@H](CO)N2Cc1ccccc1Cl`, for which the max activity is -21.9% (inactive).

Still in this experiment, the particulars now being: HepG2 viability, ATP luminescence (CellTiter-Glo), 72 h; at 26 µM; stronger effect = lower value; 0% = untreated, negative = ATP loss.
In the case of `COC(=O)CC1(C(=O)OC)Oc2ccc(Br)cc2C(=O)N1c1cccc(Cl)c1Cl` (stereo not given), the max activity was -23% (inactive). As to `O=C(O)c1ccc(N/N=C/c2ccc(OC(=O)c3cccc(Cl)c3)cc2)cc1`, the max activity was -33.2% (inactive). Still for that read-out and setting: under `CC(NC(=O)c1ccco1)c1nc(-c2ccc(C(C)(C)C)cc2)no1` (stereo not given) stands -24.1% (inactive). Turning to `Cc1ccc2oc(/N=C(\N)NC(=O)C(C)(C)C)nc2c1`, the max activity was -11.8% (inactive). Same read-out and setting: as for `COc1ccc(/C=C(/C(=O)c2cccs2)N2C=CC=CC2=C(C#N)C#N)cc1`, the figure is -33.6% (inactive); as for `CCOc1ccc(N=Nc2ccc(O)c3ncccc23)cc1`, -26.7% (inactive).

On to `O=c1[nH]c(/C=C2\C=Nc3ccccc32)c(O)n1Cc1ccccc1F`, for which the max activity is -19.8% (inactive).

As to `CCOc1cc(N2CCC(O)CC2)ccc1Nc1ncc2c(n1)N(C)c1ccccc1C(=O)N2C`, the max activity is -18.4% (inactive). Turning to `O=C(O)c1ccc(N/N=C/c2ccc3nccnc3c2)cc1`, the max activity was -27.1% (inactive).

`C[C@@H]1CN([C@H](C)CO)C(=O)CCCn2nncc2CO[C@H]1CN(C)Cc1ccc(Oc2ccccc2)cc1`: the max activity is -33.6% (inactive). The same measure, in the same setting: under `COc1ccc(C=C2CCc3ccccc3C2=O)cc1` stands -23.4% (inactive); under `C=CCOc1ccccc1C(=O)/C=C1/C(=O)Nc2ccccc21`, -31.5% (inactive); under `COc1ccc(Cl)cc1S(=O)(=O)Nc1ccc2c(c1)n(C)c(=O)n2C`, -15.6% (inactive). Consider `COc1ccc(S(=O)(=O)N=Nc2c(O)[nH]c3ccccc23)cc1`, for which the max activity was -27.4% (inactive).

In the case of `CCN(CC)c1ccc(C2NC(=O)c3ccccc3N2)cc1` (stereo not given), the max activity is -26.4% (inactive).

The values are drawn from PubChem BioAssay AID720589 (Broad Institute, 2013).
